Among the data in patent US20070149562A1, “OXOPIPERIDINE DERIVATIVES, PREPARATION AND THERAPEUTIC USE THEREOF” (SANOFI-AVENTIS, priority 2004, published 2007) are IC50, EC50 and melting point values, retold here.

Structures can show the parent of a compound that is named as a salt.

Data set [1] concerns the target T1, human MC4 receptor (Homo sapiens, UniProt P32245).
T1 construct: host or cells: CHO-K1
The data set is described as follows: Affinity assay: displacement of [125I]-[Nle4-D-Phe7]-α-MSH binding to cell membranes (SPA). As to conditions: membranes of CHO-K1 cells expressing human MC4 receptor; radioligand 100 pM; read-out: IC50 with respect to the MC4 receptor. The method, then: This affinity assay is carried out by measuring the binding of [^125I]-[Nle^4-D-Phe^7]-[…]-MSH to cell membranes. The displacement of this radioligand is used to identify inhibitors of the specific binding to recombinant melanocortin receptors.
For this assay, membranes prepared from CHO-K1 cells expressing the human MC4 receptor at high density (Euroscreen) or membranes, that were purchased (Perkin Elmer Life Sciences, Receptor Biology), of HEK-293 cells expressing hMC3 receptors were used. CHO-K1 cells transfected with the hMC4 receptor gene (Euroscreen) are seeded into DMEM/Nutrient Mix F12 culture medium containing 10% foetal calf serum (Biowhittaker), 1% sodium pyruvate, 1% L-glutamine, 1% non-essential amino acids, 0.4 mg/ml geneticin (G418) and 0.5% PenStrep, these products being provided by Gibco/BR1, except the calf serum. At 80% confluency, the cells are scraped off and the cell pellets are frozen at −80° C.
A tube of cells (approximately 70×10^6 cells) is thawed on ice and resuspended in 10 ml of binding buffer [25 mM HEPES, pH 7.0, 1 mM MgCl2, 1.5 mM CaCl2, 100 mM NaCl, 1 mM 1,10-phenanthroline and 1 tablet of Complete™ (protease inhibitor from Roche) in 50 ml of buffer]using a polytron for 20 seconds. The suspension is centrifuged for 20 min at 19 500 rpm at 4° C. The supernatant is discarded and the pellet is resuspended in 5 ml of binding buffer. The amount of proteins present in the sample is assayed using a Bradford test, and the concentration is adjusted to 3 ug/25 ul by dilution in binding buffer.
[^125I]-[Nle^4, D-Phe^7]-[…]-MSH is diluted in binding buffer+0.2% BSA. SPA beads (wheatgerm agglutinin polyvinyltoluene, Amersham Pharmacia Biotech) are hydrated in the binding buffer+0.2% BSA and are then mixed with the cell homogenate so as to obtain 3 μg of cell proteins and 250 ug of beads in 50 ul. […] The nonspecific binding is defined by NDP-DMSH at 10^-7 M. The total binding is measured by the number of counts per minute in the presence of the radioligand alone. […]
On the technique in general: Displacement assays read how much labelled ligand stays bound in the presence of the test substance.

Another data set deals with T2, human MC3 receptor (Homo sapiens, UniProt P41968).
T2 construct: expressed in transfected cells; host or cells: CHO(dhfr-)
T2 sequence (P41968 whole entry): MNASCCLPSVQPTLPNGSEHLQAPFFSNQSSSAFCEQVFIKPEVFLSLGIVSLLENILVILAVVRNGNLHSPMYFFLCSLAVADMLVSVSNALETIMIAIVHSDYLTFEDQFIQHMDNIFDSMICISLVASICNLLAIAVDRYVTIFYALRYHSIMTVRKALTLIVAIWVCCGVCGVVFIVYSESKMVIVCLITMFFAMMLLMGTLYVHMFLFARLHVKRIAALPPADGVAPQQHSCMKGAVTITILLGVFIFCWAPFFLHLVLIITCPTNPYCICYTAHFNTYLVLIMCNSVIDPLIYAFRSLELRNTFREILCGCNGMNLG
The data set is described as follows: Functional assay of agonist activity: cAMP formation. Type of data set: cell-based. As to conditions: CHO(dhfr-) cells expressing human MC3 receptor, 1 hour incubation, read-out: EC50 with respect to the MC3 receptor. The method, then: (§1) A functional assay is used to differentiate between the agonist activity and the antagonist activity. For this, the formation of cyclic adenosine monophosphate (cAMP) generated by activation of the MC3 receptor or of the MC4 receptor is assayed.
CHO(dhfr-) cells expressing the human MC3 receptor are seeded into MEM Eagle culture medium (Sigma) containing 10% of dialysed calf serum, 1% L-glutamine, 1% sodium pyruvate, 20 mg/500 ml L-proline, 0.3 mg/ml Geneticin and 0.5% PenStrep, these products being provided by Gibco/BR1, except for the dialysed calf serum (Cambrex) and the L-proline (Sigma).
(§2) The compounds to be tested (diluted in 10% DMSO), in an amount of 10 ul at a concentration of 10 times the final concentration, are added to the plates of cells (final volume=100 ul/well). After incubation for 1 hour (37° C., 5% CO2), the amount of cAMP is assayed using Tropix kits (Appelera) according to the supplier's documentation. The intrinsic activity of the compounds is calculated by comparing the stimulation of cAMP by these compounds to the stimulation induced by 30 nM of NDP MSH (maximum of 100%). The EC50 value for the compounds corresponds to the concentration which produces 50% of the maximum stimulation obtained with this compound.
On the technique in general: Changes in cAMP serve as a functional read-out for many G protein-coupled receptors.

Data set [2] concerns the target T1, human MC4 receptor. The data set is described as above. Type of data set: cell-based. The note with it: CHO-K1 cells expressing human MC4 receptor, 1 hour incubation, read-out: EC50 with respect to the MC4 receptor. The method, then: as §1
CHO-K1 cells, expressing the human MC4 receptor at a moderate density (Euroscreen), are seeded into DMEM/Nutrient Mix F12 culture medium (Gibco/BR1) containing 10% of foetal calf serum, 0.5% sodium pyruvate, 1% L-glutamine, 1% non-essential amino acids, 200 mg/l hygromycin B and 0.5% PenStrep, these products being provided by Gibco/BR1, except the calf serum (Biowhittaker) and hygromycin B (Sigma).
as §2

T1 sequence (P32245 whole entry): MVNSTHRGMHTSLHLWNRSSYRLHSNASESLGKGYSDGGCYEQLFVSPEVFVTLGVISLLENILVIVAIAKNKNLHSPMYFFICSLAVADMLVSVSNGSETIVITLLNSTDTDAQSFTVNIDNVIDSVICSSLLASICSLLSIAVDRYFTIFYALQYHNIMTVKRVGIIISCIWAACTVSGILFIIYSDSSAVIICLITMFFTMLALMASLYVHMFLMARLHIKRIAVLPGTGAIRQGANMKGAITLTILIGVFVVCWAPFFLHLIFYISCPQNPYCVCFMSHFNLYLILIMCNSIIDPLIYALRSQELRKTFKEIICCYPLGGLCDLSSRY

As usually defined, the IC50 is the concentration that inhibits the measured activity by half. The term EC50 denotes the midpoint of the concentration-response curve. One may read the melting point as the temperature of the solid-liquid transition. `O=C([C@@H](Cc1ccc(Cl)cc1)NC1CCOCC1)N1CCC(Cn2cncn2)(C2CCCCC2)CC1` [Compound 2, N-{(1R)-1-(4-chlorobenzyl)-2-[4-cyclohexyl-4-(1H-1,2,4-triazol-1-ylmethyl)piperidin-1-yl]-2-oxoethyl}tetrahydro-2H-pyran-4-amine] gave a melting point of 75 °C. Moreover, the concentration for half-maximal inhibition (IC50) on human MC4 receptor [1] is 570 nM. In addition, the EC50 on human MC3 receptor is 110 nM. Moreover, the half-maximal effective concentration (EC50) at human MC4 receptor [2] was 60 nM.

`CS(=O)(=O)N1CCC(N[C@H](Cc2ccc(Cl)cc2)C(=O)N2CCC(Cn3cncn3)(C3CCCCC3)CC2)CC1` (as salt: HCl) [Compound 54, N-{(1R)-1-(4-chlorobenzyl)-2-[4-cyclo-hexyl-4-(1H-1,2,4-triazol-1-ylmethyl)piperidin-1-yl]-2-oxoethyl}-1-(methylsulphonyl)piperidin-4-amine] yielded a melting point greater than 200 °C.

For the compound `O=C([C@@H](Cc1ccc(Cl)cc1)NC1CCNCC1)N1CCC(Cn2cncn2)(C2CCCCC2)CC1` (as salt: HCl) [Compound 1, N-{(1R)-1-(4-chlorobenzyl)-2-[4-cyclohexyl-4-(1H-1,2,4-triazol-1-ylmethyl)piperidin-1-yl]-2-oxoethyl}piperidin-4-amine], the melting point amounted to 255 °C.

For `O=C([C@@H](Cc1ccc(Cl)cc1)NC1CCNCC1)N1CCC(Cn2cncn2)(C2CCCCC2)CC1` [Compound 1, N-{(1R)-1-(4-chlorobenzyl)-2-[4-cyclohexyl-4-(1H-1,2,4-triazol-1-ylmethyl)piperidin-1-yl]-2-oxoethyl}piperidin-4-amine], the IC50 on human MC4 receptor [1] came to 250 nM. Further, the EC50 came out at 200 nM on human MC3 receptor and 50 nM on human MC4 receptor [2].

With `N[C@H]1CC[C@@H](N[C@H](Cc2ccc(Cl)cc2)C(=O)N2CCC(Cn3cncn3)(C3CCCCC3)CC2)CC1` (as salt: HCl) [Compound 12, cis-N-{(1R)-1-(4-chlorobenzyl)-2-[4-cyclohexyl-4-(1H-1,2,4-triazol-1-ylmethyl)piperidin-1-yl]-2-oxoethyl}cyclohexane-1,4-diamine], the melting point was determined as 159 °C.

Compound `NCC(=O)N[C@H]1CC[C@@H](N[C@H](Cc2ccc(Cl)cc2)C(=O)N2CCC(Cn3cncn3)(C3CCCCC3)CC2)CC1` (as salt: HCl) [Compound 116, N-[cis-4-({(1R)-1-(4-chlorobenzyl)-2-[4-cyclohexyl-4-(1H-1,2,4-triazol-1-ylmethyl)piperidin-1-yl]-2-oxoethyl}amino)cyclohexyl]glycinamide] returned a melting point of 128 °C.

Regarding `N[C@H]1CC[C@@H](N[C@H](Cc2ccc(Cl)cc2)C(=O)N2CCC(Cn3cncn3)(C3CCCCC3)CC2)CC1` [Compound 12, cis-N-{(1R)-1-(4-chlorobenzyl)-2-[4-cyclohexyl-4-(1H-1,2,4-triazol-1-ylmethyl)piperidin-1-yl]-2-oxoethyl}cyclohexane-1,4-diamine], the half-maximal inhibitory concentration (IC50) on human MC4 receptor [1] stood at 200 nM. The EC50 was 100 nM at human MC3 receptor and 20 nM at human MC4 receptor [2].
